Results on 13 compounds are retold here after US4786648A, “O-substituted tetrahydropyridine oxime cholinergic agents” (Warner-Lambert Company, priority 1987, dated 1988).

Read-outs that look alike come from different tables or passages of the source.

For assay [1], the system named is age-related cognitive deficits. Conditions: H. P. Davis, et al (1983); cited from earlier work.
Assay [2] concerns the target central muscarinic binding site. The settings on record: radio-labeled quinuclidinyl benzilate (antagonist), rat cerebral cortex.
Assay [3] shares this target. The assay can be described thus: RCMD screening assay (inhibition of radio-labeled cis-methyldioxolane binding, rat cerebral cortex tissue). As for the experimental part: Similarly, in the RCMD screening assay, described more fully by T. W. Vickeroy, et al, J. Pharmacol. Exp. Ther., 229 (3): 747 (1984), rat cerebral cortex tissue was treated with radio-labeled cis-methyldioxolane,a known muscarinic binding site agonist. The concentrations of test compounds required to inhibit 50% of the binding of this muscarinic agonist were then determined.

Assay [4] deals with laboratory rats given scopolamine. The assay can be described thus: SIS, scopolamine induced swimming test. The assay is classed as in vivo, rat. The settings on record: for minimal effective dose: Rattus norvegicus, sc, Tables 3 and 4, Subcutaneous, five minute test period, read-out: Minimal Effective Dose for Reversal of Scopolamine-Induced Swimming Hyperactivity; for reversal of scopolamine-induced swimming hyperactivity: rats given scopolamine. Here is the method:
In a second screening assay, designated SIS, the scopolamine induced swimming test, the ability of representative compounds of the present invention to reverse the hyperactive swimming behavior of laboratory rats given scopolamine was assessed. In this test, untreated rats will generally swim between 20 to 30 meters during a five minute test period. […] This swimming hyperactivity can be reversed by administration of physostigmine or the cholinergic agonist, arecoline. The effect of scopolamine is centrally mediated; the ability of a test compound to reverse the hyperactive swimming behavior induced by scopolamine is thus a measure of the central cholinergic activity of the compound.

In assay [5] the test system is patients clinically diagnosed as having presenile primary degenerative dementia. Conditions: double blind study, Christie, et al (1981); cited from earlier work.
Assay [6] concerns Aged humans and nonhuman primates with decreased cognition. Conditions: acetylcholinesterase inhibitor treatment; cited from earlier work.
[7] abbreviates: Table 1, radio-labeled cis-methyldioxolane (agonist).
[8] abbreviates: Table 2, radio-labeled cis-methyldioxolane (agonist).

Regarding `Nc1ccncc1N` [3,4-diaminopyridine], the “effect on age-related cognitive deficits” value in assay [1] is recorded as “ameliorate age-related cognitive deficits”.
The IC50 is the concentration at which inhibition is half-maximal. Take `CCC(=NOC)C1=CCCNC1` [Example 2, 1-(1,2,5,6-Tetrahydro-3-pyridinyl)-1-propanone, O-Methyloxime]: the IC50 is 9500 nM in assay [2] (Table 1) and 290 nM in assay [3] (setting [7]).
What is called minimal effective dose is the smallest amount tested that counted as effective. `CON=CC1=CCCN(C)C1` [Example 3, 1,2,5,6-Tetrahydro-1-methyl-3-pyridinecarboxaldehyde O-Methyloxime]: the IC50 in assay [2] (Table 1) is 1800 nM; in assay [3] (setting [7]), 2 nM. In addition, the minimal effective dose in assay [4] (scopolamine 0.1 mg/kg, rats) stood at 3.2 mg/kg.
In the case of `CON=CC1=CCCNC1` [Example 4, 1,2,5,6-Tetrahydro-3-pyridinecarboxaldehyde, O-Methyl oxime], the IC50 in assay [2] (Table 1) came out at 7100 nM; in assay [3] (setting [7]), 10 nM. The minimal effective dose in assay [4] (scopolamine 0.1 mg/kg, rats) was 3.2 mg/kg.
Consider `CCON=CC1=CCCN(C)C1` [Example 6, 1,2,5,6-Tetrahydro-1-methyl-3-pyridinecarboxaldehyde, O-Ethyloxime], for which the values for the IC50 in assay [2] (Table 1) and in assay [3] (setting [7]) were 10000 nM and 28 nM, respectively.
For `CCON=CC1=CCCNC1` [Example 7, 1,2,5,6-Tetrahydro-3-pyridinecarboxaldehyde, O-ethyloxime] the same measures were 1000 nM and 42 nM.
In the case of `CON=C(C)C1=CCCNC1` [Example 8, 1-(1,2,5,6-Tetrahydro-3-pyridinyl)ethanone, O-methyloxime], the IC50 was 5800 nM in assay [2] (Table 1) and 28 nM in assay [3] (setting [7]).
For the compound `CON=C(C)C1=CCNCC1` [Example 13, 1-(1,2,3,6-Tetrahydro-4-pyridinyl)ethanone, O-Methyloxime], the minimal effective dose in assay [4] (scopolamine 0.1 mg/kg, rats) amounted to 10 mg/kg.
`CON=CC1=CCN(C)CC1` [Example 14, 1,2,3,6-Tetrahydro-1-methyl-4-pyridinecarboxaldehyde, O-Methyloxime]: the IC50 was over 1 nM in assay [2] (Table 2) and over 0.1 nM in assay [3] (setting [8]). Besides, the minimal effective dose in assay [4] (scopolamine 0.1 mg/kg, rats) amounted to 32 mg/kg.
For the compound `CON=CC1=CCNCC1` [Example 15, 1,2,3,6-Tetrahydro-4-pyridinecarboxaldehyde, O-Methyloxime], the IC50 in assay [2] (Table 2) is under 1 nM; in assay [3] (setting [8]), over 0.1 nM.
In the case of `COC(=O)C1=CCCN(C)C1` [arecoline, methyl ester of 1,2,5,6-tetrahydro-1-methyl-3-pyridinecarboxylic acid, reference compound], the “reversal of scopolamine-induced swimming hyperactivity” value in assay [4] was “reversed”. Moreover, in assay [5], the “improvement in a test of picture recognition” value was “Significant improvement”.
`CNC(=O)Oc1ccc2c(c1)[C@]1(C)CCN(C)[C@@H]1N2C` [physostigmine, reference compound]: the “reversal of scopolamine-induced swimming hyperactivity” value in assay [4] is listed as “reversed”. Further, the “memory in aged humans and nonhuman primates with decreased cognition” value in assay [6] is on record as “improved memory”.
In the case of `CN1[C@@H]2C[C@@H](OC(=O)[C@H](CO)c3ccccc3)C[C@H]1[C@@H]1O[C@@H]12` [scopolamine, reference compound], the “increase of swimming distance above baseline values” in assay [4] (scopolamine 0.1 mg/kg, rats) is on record as 75-125%.
